Like-named read-outs stand apart in the source and are kept apart here.
Assays:
[1] = Partition in octanol/aqueous 5 mM phosphate-citrate-borate buffer pH 7.4, estimated from EPR amplitudes; assay type: physicochemical; conditions: for partition octanol/buffer, result in words: after shaking with buffer pH 7.4; for partition coefficient (Kp): octanol/aqueous 5 mM phosphate-citrate-borate buffer pH 7.4
Protocol: Partition in octanol-water mixtures for ionizable compounds may depend on pH, and the pH changes may result from addition of the compound. Therefore, phosphate-citrate-borate buffer (5 mM, pH 7.4) was used for Kp measurements to make the partition closer to physiological conditions. […] Although monoamino derivatives 11 and 13 mainly exist in protonated form at pH 7.4, they still remain lipophilic and, therefore, should permeate cells. Amino groups are known to provide higher retention/intracellular accumulation due to transmembrane potential or ion-trapping effect. This effect was exploited in design of nitroxide contrast agents for MRI and radioprotectors. Cellular accumulation of spin labels like 11 and 13 may help to increase efficacy spin labeling using CuAAC or SPAAC.
(§1) For kinetic measurements in water, stock solutions of nitroxide, ascorbic acid and glutathione in phosphate-citrate-borate buffer (5 mM, pH 7.4) were prepared, and pH was adjusted to 7.4 with NaOH or HCl. All the solutions were deoxygenated with argon, carefully and quickly mixed in a small tube to attain final concentrations (nitroxide, 0.2–04 mM; GSH, 5 mM; and ascorbate, 100–300 mM) and were placed into an EPR capillary (50 μL). The choice of acsorbate concentration is a compromise between the low reduction rate, which requires very long experiment time and deviations of the kinetics from linearity at higher ascorbate concentrations due to ionic strength effects. Since the ascorbate oxidation is slow under these conditions, the 5 mM concentration of GSH was sufficient to suppress the reverse reaction of ascorbate radical with the hydroxylamine, because the rate of the ascorbate radical formation was low. The increase in GSH concentration produced little effect on the final reduction rate constant values. The capillary was sealed on both sides and placed into the EPR resonator. The decay of amplitude of the low-field component of the EPR spectrum was followed to obtain the kinetics. The initial part of the decay curves (up to 20 min) was used for fitting. Kinetics of the decay was fitted to a monoexponential function to calculate the first-order rate constants. Then, these constants were divided by the concentration of ascorbic acid to calculate the second-order reaction constants. Partition coefficients in a water–octanol mixture were estimated from the amplitudes of the EPR spectra of a nitroxide in water after extensive shaking with different portions of added octanol and separation using centrifugation.

[2] = Kinetics of nitroxide reduction with ascorbate in the presence of glutathione, followed by EPR; assay type: physicochemical; conditions: ascorbate 100–300 mM, glutathione 5 mM, 5 mM phosphate-citrate-borate buffer, pH 7.4, 25 °C; values are kred × 10^4
Protocol: as §1

[3] = pH dependence of EPR spectra (titration), pK by fitting; assay type: physicochemical; conditions: for pK (pH dependence of EPR spectra): amino group protonation, 5 mM phosphate-citrate-borate buffer, 25 °C; for pK, first protonation (free base to monocation): transition at high pH; for pK, first protonation (free base to monocation) / pKa, second protonation (monocation to dication): EPR titration; for pKa, second protonation (monocation to dication): transition at low pH
Protocol: The pH-dependences of the EPR spectra were investigated using the 0.2 mM solutions of the nitroxides in 5 mM phosphate-citrate-borate buffer on a Bruker ER-200D-SRC spectrometer in 50 µL glass capillary for 0.2 mM radical solutions. Spectrometer settings: frequency, 9.87 GHz; microwave power, 5.0 mW; modulation amplitude, 0.1 mT; time constant, 50–100 ms; and conversion time, 50.12 ms. Small portions of 0.1–1 N HCl or 0.1–1 N NaOH were added to the stirred solution of a nitroxide in buffer at 25 °C, while the pH was controlled using pH-meter. After the equilibrium was established, the samples were taken from the solution and the EPR spectra were measured. The experimental points were fitted with the Equation (1) to obtain the pKa values. (1) aN(pH)=(p1+p2×10^pK1−pH+p3×10^pK1+pK2−2×pH)/1+10^pK1−pH+10^pK1+pK2−2×pH

[4] = values are kred × 10^4; cited from earlier work
Solubility in water = assay type: physicochemical

| Compound | pK (pH dependence of EPR spectra) [3] | partition coefficient (Kp) [1] | kred × 10^4 (rate of reduction with ascorbate) [2] [M^−1 s^−1] | also measured |
| --- | --- | --- | --- | --- |
| 3-((2,5-Dioxo-2,5-dihydro-1H-pyrrol-1-yl)methyl)-2,2,5,5-tetraethyl-4-((trimethylammonio)methyl)-2,5-dihydro-1H-pyrrol-1-oxyl monoiodide [16b] |  |  |  | partition octanol/buffer, result in words [1]: not detected in octanol |
| 3-((2,5-Dioxo-2,5-dihydro-1H-pyrrol-1-yl)methyl)-2,2,5,5-tetraethyl-4-((trimethylammonio)methyl)pyrrolidin-1-oxyl monoiodide [16a] |  |  |  | partition octanol/buffer, result in words [1]: not detected in octanol |
| 3-(Azidomethyl)-2,2,5,5-tetraethyl-4-((trimethylammonio)methyl)-2,5-dihydro-1H-pyrrol-1-oxyl monoiodide [17b] |  |  | 16 ± 3.0 | partition octanol/buffer, result in words [1]: not detected in octanol |
| 3-(Azidomethyl)-2,2,5,5-tetraethyl-4-((trimethylammonio)methyl)pyrrolidin-1-oxyl monoiodide [17a] |  |  | 3.0 ± 1.0 | partition octanol/buffer, result in words [1]: not detected in octanol |
| CCC1(CC)C(CN=[N+]=[N-])C(CN(C)C)C(CC)(CC)N1[O] (stereo not shown) [11a, 3-(Azidomethyl)-4-((dimethylamino)methyl)-2,2,5,5-tetraethylpyrrolidin-1-oxyl] | ca. 9 | 52 ± 5 | 4.0 ± 1.0 |  |
| CCC1(CC)C(CN=[N+]=[N-])=C(CN(C)C)C(CC)(CC)N1[O] [11b, 3-(Azidomethyl)-4-((dimethylamino)methyl)-2,2,5,5-tetraethyl-2,5-dihydro-1H-pyrrol-1-oxyl] | ca. 9 | 15 ± 1 | 15 ± 4.0 |  |
| CCC1(CC)C(CN)C(CN=[N+]=[N-])C(CC)(CC)N1[O] (stereo not shown) [13a, 3-(Aminomethyl)-4-(azidomethyl)-2,2,5,5-tetraethylpyrrolidin-1-oxyl] | ca. 9 | 350 ± 35 | 6.3 ± 0.9 |  |
| CCC1(CC)C(CN)=C(CN=[N+]=[N-])C(CC)(CC)N1[O] [13b, 3-(Aminomethyl)-4-(azidomethyl)-2,2,5,5-tetraethyl-2,5-dihydro-1H-pyrrol-1-oxyl] | ca. 9 | 45 ± 2 | 7.6 ± 0.3 |  |
| CCC1(CC)C(CN)C(CN(C)C)C(CC)(CC)N1[O] (stereo not shown) [14a, 3-(Aminomethyl)-4-((dimethylamino)methyl)-2,2,5,5-tetraethylpyrrolidin-1-oxyl] |  |  | 6.4 ± 1.0 | pK, first protonation (free base to monocation) [3]: ca. 11; pKa, second protonation (monocation to dication) [3]: ca. 3; pKa, second protonation (monocation to dication) ([3]; listed as N,N-dimethyl-3,4-bis-(aminomethyl)-2,2,5,5-tetraethylpyrrolidine-1-oxyl): 3 |
| CCC1(CC)C(CN)=C(CN(C)C)C(CC)(CC)N1[O] [14b, 3-(Aminomethyl)-4-((dimethylamino)methyl)-2,2,5,5-tetraethyl-2,5-dihydro-1H-pyrrol-1-oxyl] |  | 7 ± 0.3 | 8 ± 1.0 | pK, first protonation (free base to monocation) [3]: ca. 11; pKa, second protonation (monocation to dication) [3]: ca. 3 |
| CCC1(CC)C(CN(C)C)C(CN2C(=O)C=CC2=O)C(CC)(CC)N1[O] (stereo not shown) [15a, 3-((Dimethylamino)methyl)-4-((2,5-dioxo-2,5-dihydro-1H-pyrrol-1-yl)methyl)-2,2,5,5-tetraethylpyrrolidin-1-oxyl] | ca. 9 |  |  |  |
| CCC1(CC)C(CN(C)C)=C(CN2C(=O)C=CC2=O)C(CC)(CC)N1[O] [15b, 3-((Dimethylamino)methyl)-4-((2,5-dioxo-2,5-dihydro-1H-pyrrol-1-yl)methyl)-2,2,5,5-tetraethyl-2,5-dihydro-1H-pyrrol-1-oxyl] | ca. 9 |  |  |  |
| CCC1(CC)C(CO)C(CN=[N+]=[N-])C(CC)(CC)N1[O] (stereo not shown) [compound 5, 3-(Azidomethyl)-2,2,5,5-tetraethyl-4-(hydroxymethyl)pyrrolidin-1-oxyl] |  |  |  | solubility in water (Solubility in water): poorly soluble in water |
| CCC1(CC)C(CO)C(CNC(=O)OC(C)(C)C)C(CC)(CC)N1[O] (stereo not shown) [compound 8, 3-(((tert-Butoxycarbonyl)amino)methyl)-2,2,5,5-tetraethyl-4-(hydroxymethyl)pyrrolidin-1-oxyl] |  |  | 6.0 ± 2.0 |  |
| CCC1(CC)C(CNC(=O)OC(C)(C)C)C(COS(C)(=O)=O)C(CC)(CC)N1[O] (stereo not shown) [compound 9, 3-(((tert-Butoxycarbonyl)amino)methyl)-2,2,5,5-tetraethyl-4-(((methylsulfonyl)oxy)methyl)pyrrolidin-1-oxyl] |  |  | 3.0 ± 1.0 |  |
| CCC1(CC)C(CN=[N+]=[N-])C(CNC(=O)OC(C)(C)C)C(CC)(CC)N1[O] (stereo not shown) [compound 10, 3-(Azidomethyl)-4-((tert-butoxycarbonylamino)methyl)-2,2,5,5-tetraethylpyrrolidin-1-oxyl] |  |  | 3.0 ± 1.0 |  |
| CCC1(CC)C(CN=[N+]=[N-])C(Cn2nnc(C(=O)[O-])c2C(=O)O)C(CC)(CC)N1[O].[Na+] (stereo not shown) [compound 20, 3-(Azidomethyl)-4-((4,5-dicarboxy-1H-1,2,3-triazol-1-yl)methyl)-2,2,5,5-tetraethylpyrrolidin-1-oxyl monosodium salt] |  |  | 5.9 ± 1.2 | partition octanol/buffer, result in words [1]: not detected in octanol |

Second part, led by results:

| pK (pH dependence of EPR spectra) [3] | partition coefficient (Kp) [1] | Compound | kred × 10^4 (rate of reduction with ascorbate) [2] [M^−1 s^−1] | also measured |
| --- | --- | --- | --- | --- |
|  | 41 ± 2 | CCC1(CC)C(CO)C(CO)C(CC)(CC)N1[O] (stereo not shown) [compound 1, 3,4-bis-hydroxymethyl-2,2,5,5-tetraethylpyrrolidine-1-oxyl] |  | kred × 10^4 (rate of reduction with ascorbate) [4]: 3.3 ± 0.8 [26] M^−1 s^−1 |
| ca. 9 |  | CCC1(CC)C(CN)C(CO)C(CC)(CC)N1[O] (stereo not shown) [compound 6, 3-(Aminomethyl)-2,2,5,5-tetraethyl-4-(hydroxymethyl)pyrrolidin-1-oxyl] |  |  |
|  | 84 ± 2 | CCC1(CC)C(CO)C(CN2C(=O)C=CC2=O)C(CC)(CC)N1[O] (stereo not shown) [compound 7, 3-((2,5-Dioxo-2,5-dihydro-1H-pyrrol-1-yl)methyl)-2,2,5,5-tetraethyl-4-(hydroxymethyl)pyrrolidin-1-oxyl] |  | solubility in water (Solubility in water): poorly soluble in water |
|  | 270 | CCC1(CC)CC(C(=O)O)C(CC)(CC)N1[O] (stereo not shown) [compound 21, 3-carboxy-2,2,5,5-tetraethylpyrrolidine-1-oxyl, reference compound] |  | kred × 10^4 (rate of reduction with ascorbate) [4]: 12.5 ± 0.3 [22] M^−1 s^−1 |
|  | 37 ± 2 | CCC1(CC)C(CO)=C(CO)C(CC)(CC)N1[O] [compound 22, 2,2,5,5-tetraethyl-3,4-bis(hydroxymethyl)-2,5-dihydro-1H-pyrrol-1-oxyl, reference compound] | 3.4 ± 0.1 |  |

From PMC10855552, “Hydrophilic Reduction-Resistant Spin Labels of Pyrrolidine and Pyrroline Series from 3,4-Bis-hydroxymethyl-2,2,5,5-tetraethylpyrrolidine-1-oxyl” (International Journal of Molecular Sciences, 2024)
